Results from ChEMBL document CHEMBL1201862, “PubChem BioAssay data set” (2004).
Active and inactive are the calls of the source. Rule as the data show it, for most assays here: actives have a measured EC50 and inactives only a lower limit.

What was measured:
[1] = target: T1, Sphingosine 1-phosphate receptor 1 (Homo sapiens, UniProt P21453); assay type: functional;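 as to IC50: Tango beta-arrestin reporter U2OS cells stimulated with S1P near its EC80; inhibitor potency meaning antagonism of receptor activation by the natural agonist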
T1 sequence (P21453 whole entry): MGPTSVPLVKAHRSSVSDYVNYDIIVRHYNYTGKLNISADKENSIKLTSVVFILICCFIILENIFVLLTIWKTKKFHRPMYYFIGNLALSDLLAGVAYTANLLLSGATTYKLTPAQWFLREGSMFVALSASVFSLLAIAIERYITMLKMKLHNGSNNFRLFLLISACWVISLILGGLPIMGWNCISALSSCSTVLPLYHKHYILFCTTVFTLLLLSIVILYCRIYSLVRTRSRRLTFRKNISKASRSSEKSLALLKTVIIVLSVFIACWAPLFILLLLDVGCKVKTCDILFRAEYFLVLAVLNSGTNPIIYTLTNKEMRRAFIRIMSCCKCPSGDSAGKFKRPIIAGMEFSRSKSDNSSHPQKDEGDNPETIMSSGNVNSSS

[2] = Luminescence-based dose response cell-based high throughput screening assay for cytotoxic compounds using the IEC-6 intestinal epithelial cell line. [Related pubchem assays: 1858 (Summary AID.), 1825 (Counterscreen.), 1907 (Confirmation screen.)]; assay type: functional
Streptococcus = assay: GAS UMAA2166 growth inhibition – luminescence, BacTiterGlo, counter-screen for streptokinase expression inhibitor project, dose response (AID 1915); assay type: functional, organism-based;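 also: potency for reduction of bacterial viability or growth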
[3] = alpha-synuclein stem-loop translation blockers – luminescence, H4 neuroglioblastoma cells, dose confirmation, confirmation (AID 2454); assay type: functional, cell-based;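 also: H4 neuroglioblastoma cells carrying an alpha-synuclein 5'UTR luciferase reporter; potency for inhibition of the luciferase signal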
Protein RecA [4] = target: T2, Protein RecA (Mycobacterium tuberculosis, UniProt P9WHJ3); assay: Fluorescence Cell-Free Homogeneous Dose Retest to Identify Inhibitors of RecA-Intein Splicing Activity. [Related pubchem assays (depositor defined):AID2097, AID2223, AID489010, AID492950]; assay type: functional
T2 sequence (P9WHJ3 whole entry): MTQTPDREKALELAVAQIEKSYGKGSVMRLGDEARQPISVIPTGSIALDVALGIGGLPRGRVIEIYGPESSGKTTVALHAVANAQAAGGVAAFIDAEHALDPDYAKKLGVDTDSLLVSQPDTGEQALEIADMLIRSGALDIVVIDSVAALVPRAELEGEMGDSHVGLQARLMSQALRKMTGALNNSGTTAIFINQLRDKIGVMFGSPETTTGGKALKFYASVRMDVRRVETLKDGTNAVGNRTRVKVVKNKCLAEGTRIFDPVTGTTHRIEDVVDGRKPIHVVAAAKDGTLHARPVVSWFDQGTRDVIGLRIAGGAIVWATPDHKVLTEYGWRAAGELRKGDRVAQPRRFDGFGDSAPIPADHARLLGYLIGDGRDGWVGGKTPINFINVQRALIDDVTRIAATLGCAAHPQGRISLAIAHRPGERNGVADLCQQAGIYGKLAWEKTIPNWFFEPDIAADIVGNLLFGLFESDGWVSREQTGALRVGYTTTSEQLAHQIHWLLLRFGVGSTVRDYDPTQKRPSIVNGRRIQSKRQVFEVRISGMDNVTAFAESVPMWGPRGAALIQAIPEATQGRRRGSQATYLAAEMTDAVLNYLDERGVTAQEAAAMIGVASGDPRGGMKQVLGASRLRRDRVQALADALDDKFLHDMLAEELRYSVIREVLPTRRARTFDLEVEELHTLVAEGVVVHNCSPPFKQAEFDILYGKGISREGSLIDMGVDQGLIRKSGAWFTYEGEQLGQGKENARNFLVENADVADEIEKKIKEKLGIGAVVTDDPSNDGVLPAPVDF

[5] = target: T3, Heat shock factor protein 1 (Mus musculus, UniProt P38532); assay: decrease of HSF1-responsive luciferase luminescence – cell-based, NIH3T3, dose retest, confirmation (AID 2382); assay type: functional;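 also: NIH3T3 fibroblasts with HSF1-driven luciferase reporter stressed by proteasome inhibitor MG132; luminescence from HSF1-driven luciferase expression after 8 hours of MG132 stress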
T3 sequence (P38532 whole entry): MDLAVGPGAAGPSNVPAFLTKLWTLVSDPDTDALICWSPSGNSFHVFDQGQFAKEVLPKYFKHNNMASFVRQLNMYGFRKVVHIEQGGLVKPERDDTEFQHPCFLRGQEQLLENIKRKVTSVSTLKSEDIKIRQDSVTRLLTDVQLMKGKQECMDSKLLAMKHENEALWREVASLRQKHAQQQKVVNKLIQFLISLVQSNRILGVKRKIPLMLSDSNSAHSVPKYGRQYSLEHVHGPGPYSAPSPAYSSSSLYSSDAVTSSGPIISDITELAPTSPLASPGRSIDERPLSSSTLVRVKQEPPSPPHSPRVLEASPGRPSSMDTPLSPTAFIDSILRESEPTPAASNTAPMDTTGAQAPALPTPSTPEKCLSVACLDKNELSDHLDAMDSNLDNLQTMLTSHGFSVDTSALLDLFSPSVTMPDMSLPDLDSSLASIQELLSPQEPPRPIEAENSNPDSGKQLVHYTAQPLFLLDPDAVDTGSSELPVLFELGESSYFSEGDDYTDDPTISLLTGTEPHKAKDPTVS

cells = assay type: functional, cell-based
[6] = target: T4, Replicative DNA helicase DnaB (Mycobacterium tuberculosis, UniProt P9WMR3); assay: DnaB intein splicing inhibitors, dose response, biochemical, cell-free fluorescence (AID 449749); assay type: functional
T4 sequence (P9WMR3 whole entry): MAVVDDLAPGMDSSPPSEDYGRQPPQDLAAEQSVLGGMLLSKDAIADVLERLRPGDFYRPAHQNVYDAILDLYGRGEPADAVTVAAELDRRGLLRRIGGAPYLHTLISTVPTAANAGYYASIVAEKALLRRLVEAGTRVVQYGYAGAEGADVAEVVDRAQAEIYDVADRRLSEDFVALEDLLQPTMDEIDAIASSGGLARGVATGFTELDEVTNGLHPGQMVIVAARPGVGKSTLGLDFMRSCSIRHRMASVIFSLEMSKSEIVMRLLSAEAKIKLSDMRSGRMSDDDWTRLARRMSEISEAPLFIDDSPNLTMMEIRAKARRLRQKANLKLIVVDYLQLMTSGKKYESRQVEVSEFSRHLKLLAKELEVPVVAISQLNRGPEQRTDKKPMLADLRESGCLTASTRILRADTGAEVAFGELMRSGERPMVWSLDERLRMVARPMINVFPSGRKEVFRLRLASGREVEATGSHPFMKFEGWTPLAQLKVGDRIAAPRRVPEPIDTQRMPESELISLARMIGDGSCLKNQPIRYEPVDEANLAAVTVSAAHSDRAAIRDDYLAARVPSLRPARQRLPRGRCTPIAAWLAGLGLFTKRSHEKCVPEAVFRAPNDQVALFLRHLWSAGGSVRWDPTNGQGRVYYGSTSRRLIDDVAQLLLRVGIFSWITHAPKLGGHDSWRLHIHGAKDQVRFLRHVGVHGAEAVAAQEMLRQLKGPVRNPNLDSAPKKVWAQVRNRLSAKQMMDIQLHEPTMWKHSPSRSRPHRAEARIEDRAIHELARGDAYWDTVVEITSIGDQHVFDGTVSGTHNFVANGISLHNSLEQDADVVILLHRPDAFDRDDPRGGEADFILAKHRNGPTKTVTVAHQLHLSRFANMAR

[7] = Intein inhibitors as potential Tuberculosis drugs, a cytotoxicity screen. [Related pubchem assays (depositor defined):AID2221, AID2223, AID434968, AID435010, AID449749, AID449750, AID489010]; assay type: functional
[8] = target: T5, Sphingosine 1-phosphate receptor 4 (Homo sapiens, UniProt O95977); assay: Fluorescence dose response cell-based high throughput screening assay for antagonists of the Sphingosine 1-Phosphate Receptor 4 (S1P4). [Related pubchem assays: 1524 (Confirmation in triplicates.), 1510 (Primary screen.)]; assay type: functional
T5 sequence (O95977 whole entry): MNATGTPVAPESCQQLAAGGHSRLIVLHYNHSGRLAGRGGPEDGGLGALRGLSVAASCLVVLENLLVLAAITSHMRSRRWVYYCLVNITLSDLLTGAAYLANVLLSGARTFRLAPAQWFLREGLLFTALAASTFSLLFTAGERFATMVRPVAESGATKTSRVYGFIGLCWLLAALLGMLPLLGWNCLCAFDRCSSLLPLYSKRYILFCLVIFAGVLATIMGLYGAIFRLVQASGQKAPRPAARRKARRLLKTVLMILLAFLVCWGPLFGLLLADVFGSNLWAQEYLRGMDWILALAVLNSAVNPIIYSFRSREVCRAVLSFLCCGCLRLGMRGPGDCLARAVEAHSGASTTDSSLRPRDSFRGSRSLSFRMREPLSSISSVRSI

Protein RecA [9] = target: T2, Protein RecA; assay: GFP-RecA MOA-DTT Measured in Biochemical System Using Plate Reader - 2047-05_Inhibitor_Dose_DryPowder_Activity. [Related pubchem assays (depositor defined):AID2223]; parameters: species or system Mycobacterium tuberculosis H37Rv
[10] = microbe, parasite or virus in culture; assay type: functional; details: Mycobacterium tuberculosis
[11] = luciferase reporter signal reduction – luminescence, H4-C neuroglioblastoma cells, dose response (AID 2458); assay type: functional, cell-based;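 also: H4 neuroglioblastoma cells stably carrying a luciferase reporter gene fusion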
[12] = Luminescence Cell-Based Dose Response HTS to Identify Inhibitors of 5'UTR Stem-Loop Driven Prion Protein mRNA Translation in H4 Neuroglioblastoma Cells. [Related pubchem assays: 1827 (Project Summary), 1813 (Primary HTS)]; assay type: functional
[13] = test system: Streptococcus sp. 'group A'; assay: Streptococcus pyogenes SK(-)GAS viability under kanamycin – luminescence, BacTiterGlo, confirmation, counter-screen for streptokinase expression inhibitor project, dose response (AID 1900); assay type: functional, organism-based
[14] = luciferase reporter signal suppression in cells – H4 neuroglioma cells, luminescence, dose response (AID 1990); assay type: functional, cell-based
[15] = alpha-synuclein stem-loop luciferase translation blockers – H4 neuroglioma cells, luminescence, confirmation (AID 1988); assay type: functional, cell-based
[16] = target: T4, Replicative DNA helicase DnaB; assay: DnaB Intein secondary assay Measured in Biochemical System Using Plate Reader - 2047-04_Inhibitor_Dose_DryPowder_Activity. [Related pubchem assays (depositor defined):AID2223]
[17] = HEK-293T viability loss after treatment – luminescence, T-cell screen hits, cytotoxicity control for TCR NF-kB inhibitor project, dose response (AID 489026); assay type: functional, cell-based;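 also: cells exposed to compound about 14 hours before the viability readout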
[18] = NIH3T3 cell viability loss – ATP luminescence, mouse fibroblasts, counter-screen, dose response (AID 2010); assay type: functional, cell-based;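 also: cells exposed to compound for about 90 hours before reading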
[19] = Trypanosoma cruzi growth suppression in host cells – NIH3T3 host cells, beta-gal luminescence, confirmation (AID 2044); assay type: functional, cell-based;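 also: intracellular parasites grown in NIH/3T3 mouse fibroblasts as host cells; luminescent beta-galactosidase reporter signal from transgenic T. cruzi replicating inside host cells; inhibitors lower the luminescence signal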
[20] = target: T1, Sphingosine 1-phosphate receptor 1; assay: Fluorescence-based counterscreen assay for S1P4 agonists: Cell-based dose response high throughput screening assay to identify agonists of the Sphingosine 1-Phosphate Receptor 1 (S1P1). [Related pubchem assays (depositor defined):AID1509, AID1523, AID1801, AID463107, AID463118, AID463119, AID463122, AID463123, AID463129, AID463225, AID504400, AID504460]; assay type: functional
[21] = target: T5, Sphingosine 1-phosphate receptor 4; assay: Fluorescence dose response cell-based high throughput screening assay for agonists of the Sphingosine 1-Phosphate Receptor 4 (S1P4). [Related pubchem assays: 1509 (Primary screen.), 1523 (Confirmation screen in triplicates.)]; assay type: functional
[22] = target: T6, Alkaline phosphatase, tissue-nonspecific isozyme (Homo sapiens, UniProt P05186); assay: activation of tissue-nonspecific alkaline phosphatase – biochemical, TNAP isozyme, mouse IAP uHTS hits, selectivity assay for mouse IAP activator project, dose response (AID 488880); assay type: functional
T6 sequence (P05186 whole entry): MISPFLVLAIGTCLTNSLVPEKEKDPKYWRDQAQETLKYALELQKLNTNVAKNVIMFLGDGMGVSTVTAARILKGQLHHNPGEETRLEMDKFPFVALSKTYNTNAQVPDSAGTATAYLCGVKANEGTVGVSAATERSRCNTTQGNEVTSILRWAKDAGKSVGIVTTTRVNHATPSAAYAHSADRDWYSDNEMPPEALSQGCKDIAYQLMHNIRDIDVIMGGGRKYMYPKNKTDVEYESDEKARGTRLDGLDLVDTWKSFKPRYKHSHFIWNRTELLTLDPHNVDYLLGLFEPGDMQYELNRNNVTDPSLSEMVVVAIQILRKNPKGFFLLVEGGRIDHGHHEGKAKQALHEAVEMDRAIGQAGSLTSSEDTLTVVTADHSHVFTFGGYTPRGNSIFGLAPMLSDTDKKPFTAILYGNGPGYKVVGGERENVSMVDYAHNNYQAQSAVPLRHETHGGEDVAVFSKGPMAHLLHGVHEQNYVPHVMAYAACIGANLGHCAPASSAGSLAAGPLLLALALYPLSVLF

[23] = target: Intestinal-type alkaline phosphatase (Mus musculus, UniProt P24822); assay: mouse intestinal alkaline phosphatase activators, dose response, biochemical, luminescence, uHTS hits (AID 488783); assay type: functional
Sequence of Intestinal-type alkaline phosphatase (Mus musculus, UniProt P24822) (P24822 whole entry): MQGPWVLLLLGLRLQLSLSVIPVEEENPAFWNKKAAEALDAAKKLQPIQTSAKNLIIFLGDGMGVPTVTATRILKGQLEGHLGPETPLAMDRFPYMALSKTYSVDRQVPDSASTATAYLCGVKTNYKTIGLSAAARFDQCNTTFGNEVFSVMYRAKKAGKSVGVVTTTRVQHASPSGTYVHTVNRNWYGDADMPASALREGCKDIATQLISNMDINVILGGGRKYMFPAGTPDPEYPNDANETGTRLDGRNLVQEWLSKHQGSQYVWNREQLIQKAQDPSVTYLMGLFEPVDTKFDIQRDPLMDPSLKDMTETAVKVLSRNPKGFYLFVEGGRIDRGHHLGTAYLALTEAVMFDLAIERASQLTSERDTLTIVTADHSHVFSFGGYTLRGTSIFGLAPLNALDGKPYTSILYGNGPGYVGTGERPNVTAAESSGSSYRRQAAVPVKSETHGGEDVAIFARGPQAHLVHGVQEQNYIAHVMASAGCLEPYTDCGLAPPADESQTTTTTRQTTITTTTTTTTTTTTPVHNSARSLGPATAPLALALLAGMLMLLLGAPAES

[24] = target: Intestinal-type alkaline phosphatase (Homo sapiens, UniProt P09923); assay: activation of human intestinal alkaline phosphatase – biochemical, dose response (AID 488873); assay type: functional
Sequence of Intestinal-type alkaline phosphatase (Homo sapiens, UniProt P09923) (P09923 whole entry): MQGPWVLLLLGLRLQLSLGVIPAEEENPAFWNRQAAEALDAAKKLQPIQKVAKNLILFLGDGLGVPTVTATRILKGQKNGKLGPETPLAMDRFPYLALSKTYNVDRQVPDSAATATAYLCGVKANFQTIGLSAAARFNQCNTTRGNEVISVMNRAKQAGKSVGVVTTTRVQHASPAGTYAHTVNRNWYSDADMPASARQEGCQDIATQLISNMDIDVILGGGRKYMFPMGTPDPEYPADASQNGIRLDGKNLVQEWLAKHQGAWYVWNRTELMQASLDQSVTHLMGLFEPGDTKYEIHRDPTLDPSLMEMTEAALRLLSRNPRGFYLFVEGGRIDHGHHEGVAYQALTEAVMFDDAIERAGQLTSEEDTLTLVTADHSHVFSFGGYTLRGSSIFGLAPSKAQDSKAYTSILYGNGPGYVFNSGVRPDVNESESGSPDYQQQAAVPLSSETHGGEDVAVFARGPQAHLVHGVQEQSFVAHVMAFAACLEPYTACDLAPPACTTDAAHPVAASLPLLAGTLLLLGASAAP

Cc1oc2c(c1C(=O)NCc1cccnc1)C(=O)c1ccccc1C2=O
active: IC50 [1] 3650 nM | IC50 [2] 158 nM | EC50 (Streptococcus) 2560 nM | EC50 [3] 145 nM | EC50 (Protein RecA [4]) 63.9 nM | EC50 [5] 304 nM | EC50 (cells) 232 nM | AC50 [6] 438 nM | CC50 [7] 520 nM | IC50 [8] 581 nM | AC50 (Protein RecA [9]) 10800 nM | CC50 [10] 295 nM | EC50 [11] 127 nM | EC50 [12] < 100 nM | EC50 [13] 1310 nM | EC50 [14] < 100 nM | EC50 [15] < 100 nM | AC50 [16] 1150 nM | IC50 [17] 7670 nM

CC(=O)C1=C(C)NC(SCC(=O)c2ccc(Cl)cc2Cl)=C(C#N)C1c1ccco1 (stereo unspecified)
> 49800 nM (not active): EC50 [21]
active: EC50 [18] 15700 nM | EC50 [19] 437 nM
inactive: EC50 [20] > 49800 nM

Cc1ccc(NC(=O)CCNS(=O)(=O)c2ccc3nc(O)oc3c2)c(Cl)c1
active: EC50 [22] 28100 nM | EC50 [23] 14900 nM | EC50 [24] 20400 nM
